Results on four compounds are retold here after patent publication US9381200B2, “Nitrogen containing compounds” (WOCKHARDT LIMITED, priority 2011, dated 2016).

Converted amounts (≈) assume the structure as drawn. Where two headings read alike, the source gives them in different places.

Assay type in all cases: cell-based
The subject of one test is E. coli 7 MP. As to the kind of experiment: Antibacterial activity (MIC), agar dilution per CLSI. To be noted: Escherichia coli, Table 3, E. coli 7 MP expressing ESBL, read-out: MIC. The method, boiled down: (§1)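 Agar dilution MIC per CLSI: overnight cultures diluted and inoculated onto agar containing doubling dilutions of compound. Growth/no growth read after 16-20 h at 35±2° C in ambient air. Strains express ESBL.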
Background: In agar dilution the substance is mixed into plates at graded concentrations.

In another test the test system is E. coli NCTC 13351. Described as above. To be noted: Escherichia coli, NCTC13351, Table 3, E. coli NCTC 13351 expressing ESBL, 16-20 hours, 35±2° C., read-out: MIC. Summed up:
as §1

For a further test, the system named is E. coli M 50. The test is described as above. The settings on record: Escherichia coli, read-out: MIC. The method, boiled down: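 Agar dilution, CLSI method: diluted overnight culture spotted on agar with 2-fold compound series; 16-20 h, 35±2° C., ambient air; read growth/no growth; MIC in mcg/ml.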
For the next test, the system named is E. Coli B 89. As to the kind of experiment: Antibacterial activity (MIC) against MDR Gram negative strains. To be noted: Escherichia coli; Table 4; E. Coli B 89, Class C ESBL, MDR; read-out: MIC. The procedure: (§2) The biological activity of representative compounds according to the invention against various bacterial strains was investigated. In a typical study, overnight grown bacterial cultures were diluted appropriately and inoculated on the agar media containing doubling dilutions of the test compounds. Observation for growth or no growth was performed after 16-20 hours of incubation at 35±2° C. in ambient air. The overall procedure was performed as per Clinical and Laboratory Standards Institute (CLSI) recommendations (Clinical and Laboratory Standards Institute (CLSI), Performance Standards for Antimicrobial Susceptibility Testing, 20th Informational Supplement, M 100-S20, Volume 30, No. 1, 2010).
(§3) The activities are expressed as MICs (mcg/ml).

In another test the test system is E. Coli H 484. The description is as above. The settings on record: Escherichia coli; Table 4; E. Coli H 484, Class C ESBL, MDR; read-out: MIC. As for the experimental part:
as §2, §3

The next test has as its system E. Coli M 3. The description is as above. To be noted: Escherichia coli; Table 5; E. Coli M 3, Class B ESBL, MDR; read-out: MIC. As for the experimental part:
as §2, §3

A further test deals with E. Coli M 44. The test is described as above. To be noted: Escherichia coli; Table 5; E. Coli M 44, Class B ESBL, MDR; read-out: MIC. The procedure: as §2, §3
In another test the test system is E. Coli W 13351. The test is described as above. To be noted: Escherichia coli; Table 4; E. Coli W 13351, Class A ESBL, MDR; read-out: MIC. As for the experimental part: as §2, §3
The next test concerns E. Coli W 13352. The test is described as above. The settings on record: Escherichia coli; Table 4; E. Coli W 13352, Class A ESBL, MDR; read-out: MIC. The procedure: as §2, §3
The test system of another test is E. Coli W 13353. Described as above. To be noted: Escherichia coli; Table 4; E. Coli W 13353, Class A ESBL, MDR; read-out: MIC. The procedure: as §2, §3
A further test deals with K penumoniae H 521. The test is described as above. The settings on record: Table 4; K penumoniae H 521, KPC ESBL, MDR; read-out: MIC. As for the experimental part:
as §2, §3

The next test concerns K penumoniae H 523. The test is described as above. The settings on record: Table 4; K penumoniae H 523, KPC ESBL, MDR; read-out: MIC. As for the experimental part: as §2, §3
A further test has as its system K penumoniae H 525. The test is described as above. The settings on record: Table 4; K penumoniae H 525, KPC ESBL, MDR; read-out: MIC. As for the experimental part:
as §2, §3

The next test relates to K. penumoniae S 48. Described as above. To be noted: Table 5; K. penumoniae S 48, Class B ESBL, MDR; read-out: MIC. The procedure:
as §2, §3

Another test deals with P. aeruginosa ATCC 27853. The description is as above. The settings on record: Pseudomonas aeruginosa, ATCC27853; Table 5; P. aeruginosa ATCC 27853; read-out: MIC. As for the experimental part:
as §2, §3

The subject of the next test is P. aeruginosa Ps 21. The test is described as above. To be noted: Pseudomonas aeruginosa, PS21; Table 5; P. aeruginosa Ps 21; read-out: MIC. As for the experimental part:
as §2, §3

A further test deals with P. aeruginosa Ps 32. Described as above. To be noted: Pseudomonas aeruginosa, PS32; Table 5; P. aeruginosa Ps 32; read-out: MIC. The procedure: as §2, §3
Setting [1] is: M50, Table 3, E. coli M 50 expressing ESBL, agar dilution.
Setting [2] is: M50, Table 4, E. Coli M 50, Class C ESBL, MDR.

Usually MIC stands for the smallest concentration in the dilution series that meets the test's criterion for growth inhibition. With `O=C(NNC(=O)[C@H]1CC[C@@H]2CN1C(=O)N2OS(=O)(=O)O)C1CCCNC1` (mixture of isomers) [Example 14, trans-sulfuric acid mono-[2-(N′—((RS)-piperidin-3-carbonyl)-hydrazinocarbonyl)-7-oxo-1,6-diaza-bicyclo[3.2.1]oct-6-yl]ester], the minimal inhibitory concentration (MIC) in the test with E. coli 7 MP is 2 µg/mL (≈ 5.11 µM); with E. coli NCTC 13351 it was 0.5 µg/mL (≈ 1.28 µM); in the test on E. coli M 50 (setting [1]), 0.25 µg/mL (≈ 0.639 µM); with E. coli M 50 (setting [2]), 0.5 µg/mL (≈ 1.28 µM); in the test with E. Coli B 89, 0.5 µg/mL (≈ 1.28 µM); in the test with E. Coli H 484 it was 2 µg/mL (≈ 5.11 µM). The MIC in the test with E. Coli M 3 turned out to be 0.5 µg/mL (≈ 1.28 µM); in the test on E. Coli M 44, 0.25 µg/mL (≈ 0.639 µM); in the test with E. Coli W 13351, 0.5 µg/mL (≈ 1.28 µM); in the test on E. Coli W 13352, 0.5 µg/mL (≈ 1.28 µM); in the test on E. Coli W 13353, 0.5 µg/mL (≈ 1.28 µM); in the test with K penumoniae H 521, 0.5 µg/mL (≈ 1.28 µM). In addition, the minimal inhibitory concentration (MIC) in the test on K penumoniae H 523 came out at 0.25 µg/mL (≈ 0.639 µM); with K penumoniae H 525 it was 0.25 µg/mL (≈ 0.639 µM); with K. penumoniae S 48, 4 µg/mL (≈ 10.2 µM); in the test with P. aeruginosa ATCC 27853 it was 8 µg/mL (≈ 20.4 µM); in the test with P. aeruginosa Ps 21, 16 µg/mL (≈ 40.9 µM); with P. aeruginosa Ps 32 it was 8 µg/mL (≈ 20.4 µM).
For `O=C(NNC(=O)[C@H]1CC[C@@H]2CN1C(=O)N2OS(=O)(=O)O)C1CNCCN1` (mixture of isomers) [Example 38, trans-sulfuric acid mono-[2-(N′—((RS)-piperazin-2-carbonyl)-hydrazinocarbonyl)-7-oxo-1,6-diaza-bicyclo[3.2.1]oct-6-yl]ester], the MIC in the test with E. coli 7 MP came to 8 µg/mL (≈ 20.4 µM); in the test with E. coli NCTC 13351, 4 µg/mL (≈ 10.2 µM); with E. coli M 50 (setting [1]), 2 µg/mL (≈ 5.1 µM); in the test with E. coli M 50 (setting [2]) it was 2 µg/mL (≈ 5.1 µM); in the test on E. Coli B 89, 2 µg/mL (≈ 5.1 µM); with E. Coli H 484, 8 µg/mL (≈ 20.4 µM). The MIC is 1 µg/mL (≈ 2.55 µM) in the test on E. Coli M 3; 4 µg/mL (≈ 10.2 µM) in the test with E. Coli M 44; 4 µg/mL (≈ 10.2 µM) in the test with E. Coli W 13351; 4 µg/mL (≈ 10.2 µM) in the test on E. Coli W 13352; 2 µg/mL (≈ 5.1 µM) with E. Coli W 13353; 2 µg/mL (≈ 5.1 µM) with K penumoniae H 521. The MIC with K penumoniae H 523 was 2 µg/mL (≈ 5.1 µM); in the test with K penumoniae H 525, 2 µg/mL (≈ 5.1 µM); in the test on K. penumoniae S 48, 4 µg/mL (≈ 10.2 µM); in the test with P. aeruginosa ATCC 27853, above 32 µg/mL; in the test on P. aeruginosa Ps 21, above 32 µg/mL; in the test with P. aeruginosa Ps 32, above 32 µg/mL.
With `NCC(=O)NNC(=O)[C@H]1CC[C@@H]2CN1C(=O)N2OS(=O)(=O)O` (relative stereo) [Example 7, trans-sulfuric acid mono-[2-(N′-(amino-acetyl)-hydrazinocarbonyl)-7-oxo-1,6-diaza-bicyclo[3.2.1]oct-6-yl]ester], the MIC in the test on E. coli 7 MP turned out to be 4 µg/mL (≈ 11.9 µM); in the test on E. coli NCTC 13351, 2 µg/mL (≈ 5.93 µM); with E. coli M 50 (setting [1]), 2 µg/mL (≈ 5.93 µM); in the test on E. coli M 50 (setting [2]) it was 2 µg/mL (≈ 5.93 µM); in the test with E. Coli B 89, 4 µg/mL (≈ 11.9 µM); in the test on E. Coli H 484 it was 4 µg/mL (≈ 11.9 µM). Besides, the MIC in the test with E. Coli M 3 came out at 4 µg/mL (≈ 11.9 µM); with E. Coli M 44 it was 2 µg/mL (≈ 5.93 µM); with E. Coli W 13351, 2 µg/mL (≈ 5.93 µM); with E. Coli W 13352, 1 µg/mL (≈ 2.96 µM); in the test on E. Coli W 13353 it was 0.5 µg/mL (≈ 1.48 µM); in the test on K penumoniae H 521 it was 2 µg/mL (≈ 5.93 µM). Besides, the MIC with K penumoniae H 523 is 1 µg/mL (≈ 2.96 µM); with K penumoniae H 525, 2 µg/mL (≈ 5.93 µM); in the test with K. penumoniae S 48, 4 µg/mL (≈ 11.9 µM); in the test with P. aeruginosa ATCC 27853, above 32 µg/mL; with P. aeruginosa Ps 21 it was above 32 µg/mL; in the test on P. aeruginosa Ps 32, above 32 µg/mL.
For the compound `NCCC(=O)NNC(=O)[C@H]1CC[C@@H]2CN1C(=O)N2OS(=O)(=O)O` (relative stereo) [Example 8, trans-sulfuric acid mono-[2-(N′-(3-amino-propioyl)-hydrazinocarbonyl)-7-oxo-1,6-diaza-bicyclo[3.2.1]oct-6-yl]ester], the minimal inhibitory concentration (MIC) was 2 µg/mL (≈ 5.69 µM) in the test with E. coli 7 MP; 1 µg/mL (≈ 2.85 µM) with E. coli NCTC 13351; 1 µg/mL (≈ 2.85 µM) with E. coli M 50 (setting [1]); 1 µg/mL (≈ 2.85 µM) in the test on E. coli M 50 (setting [2]); 1 µg/mL (≈ 2.85 µM) in the test on E. Coli B 89; 2 µg/mL (≈ 5.69 µM) with E. Coli H 484. Moreover, the minimum inhibitory concentration (MIC) was 4 µg/mL (≈ 11.4 µM) with E. Coli M 3; 0.5 µg/mL (≈ 1.42 µM) in the test on E. Coli M 44; 1 µg/mL (≈ 2.85 µM) in the test with E. Coli W 13351; 1 µg/mL (≈ 2.85 µM) with E. Coli W 13352; 1 µg/mL (≈ 2.85 µM) with E. Coli W 13353; 1 µg/mL (≈ 2.85 µM) in the test on K penumoniae H 521. The minimum inhibitory concentration (MIC) in the test with K penumoniae H 523 stood at 0.5 µg/mL (≈ 1.42 µM); in the test on K penumoniae H 525, 1 µg/mL (≈ 2.85 µM); with K. penumoniae S 48, 1 µg/mL (≈ 2.85 µM); in the test with P. aeruginosa ATCC 27853 it was 8 µg/mL (≈ 22.8 µM); in the test with P. aeruginosa Ps 21 it was 16 µg/mL (≈ 45.5 µM); in the test with P. aeruginosa Ps 32 it was 8 µg/mL (≈ 22.8 µM).
